From patent publication US20260053932A1, “COMPOUNDS AND METHODS FOR THE TARGETED DEGRADATION OF ANDROGEN RECEPTOR AND ASSOCIATED METHODS OF USE” (Arvinas Operations, Inc., priority 2020, published 2026)
Like-named read-outs stand apart in the source and are kept apart here.

Tested on: androgen receptor (AR) in LNCaP and/or VCaP cells
Assay: Androgen Receptor ELISA assay (AR degradation)
Format: cell-based
Procedure, shortened: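 VCaP cells grown ≥3 days, then treated 5 h with compound in media containing 1 nM R1881 (10× stock). Cells lysed and AR quantified by sandwich ELISA (mouse AR detection Ab, HRP anti-mouse, TMB). DC50 and Dmax derived from AR degradation.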

[1] = degradation of AR ELISA in LNCaP and/or VCaP cells, Table 2C, read-out: DC50 Code*
[2] = LNCaP and/or VCaP cells, 5 hours incubation, media with R1881, read-out: DC50 Code* (degradation of AR ELISA)

DC50 [1] [nM] | DC50 [2] [nM] | Compound
< 1 | – | Cc1cc(O[C@H]2C(C)(C)[C@H](NC(=O)c3c(C)nc(N4CCC(CN(C(C)C)[C@H]5C[C@H](Oc6ccc7c(c6)C(=O)N(C6CCC(=O)NC6=O)C7=O)C5)CC4)nc3C)C2(C)C)cc(C)c1C#N (mixture of isomers) [compound 200, rac-N-((1r,3r)-3-(4-cyano-3,5-dimethylphenoxy)-2,2,4,4-tetramethylcyclobutyl)-2-(4-((((1r,3r)-3-((2-(2,6-dioxopiperidin-3-yl)-1,3-dioxoisoindolin-5-yl)oxy)cyclobutyl) (isopropyl)amino)methyl)piperidin-1-yl)-4,6-dimethylpyrimidine-5-carboxamide]
< 1 | – | COc1cc(O[C@H]2C[C@H](N(CC3CCN(c4cnc(C(=O)N[C@H]5C(C)(C)[C@H](Oc6ccc(C#N)c(Cl)c6)C5(C)C)cn4)CC3)C(C)C)C2)cc2c1C(=O)N(C1CCC(=O)NC1=O)C2=O (some centres unmarked) [compound 124, N-((1r,3r)-3-(3-chloro-4-cyanophenoxy)-2,2,4,4-tetramethylcyclobutyl)-5-(4-((((1r,3r)-3-((2-(2,6-dioxopiperidin-3-yl)-7-methoxy-1,3-dioxoisoindolin-5-yl)oxy)cyclobutyl) (isopropyl)amino)methyl)piperidin-1-yl)pyrazine-2-carboxamide]
< 1 | – | COCCN(CC1CCN(c2ccc(C(=O)N[C@H]3C(C)(C)[C@H](Oc4cc(C)c(C#N)c(C)c4)C3(C)C)cc2)CC1)[C@H]1C[C@H](Oc2ccc3c(c2)C(=O)N(C2CCC(=O)NC2=O)C3=O)C1 (some centres unmarked) [compound 96, N-((1r,3r)-3-(4-cyano-3,5-dimethylphenoxy)-2,2,4,4-tetramethylcyclobutyl)-4-(4-((((1r,3r)-3-((2-(2,6-dioxopiperidin-3-yl)-1,3-dioxoisoindolin-5-yl)oxy)cyclobutyl)(2-methoxyethyl)amino)methyl)piperidin-1-yl)benzamide]
< 1 | – | CCN(CC1CCN(c2cnc(C(=O)N[C@H]3C(C)(C)[C@H](Oc4cc(C)c(C#N)c(C)c4)C3(C)C)cn2)CC1)[C@H]1C[C@H](Oc2cc(OC)c3c(c2)C(=O)N(C2CCC(=O)NC2=O)C3=O)C1 (some centres unmarked) [Compound 207, N-((1r,3r)-3-(4-cyano-3,5-dimethylphenoxy)-2,2,4,4-tetramethylcyclobutyl)-5-(4-((((1r,3r)-3-((2-(2,6-dioxopiperidin-3-yl)-7-methoxy-1,3-dioxoisoindolin-5-yl)oxy)cyclobutyl)(ethyl)amino)methyl)piperidin-1-yl)pyrazine-2-carboxamide]
< 1 | – | Cc1cc(O[C@H]2C(C)(C)[C@H](NC(=O)c3ccc(N4CCC(CN(CCO)[C@H]5C[C@H](Oc6ccc7c(c6)C(=O)N(C6CCC(=O)NC6=O)C7=O)C5)CC4)cc3)C2(C)C)cc(C)c1C#N (mixture of isomers) [compound 225, rac-N-((1r,3r)-3-(4-cyano-3,5-dimethylphenoxy)-2,2,4,4-tetramethylcyclobutyl)-4-(4-((((1r,3r)-3-((2-(2,6-dioxopiperidin-3-yl)-1,3-dioxoisoindolin-5-yl)oxy)cyclobutyl)(2-hydroxyethyl)amino)methyl)piperidin-1-yl)benzamide]
– | < 1 | COCCN(CC1CCN(c2cnc(C(=O)N[C@H]3CC[C@H](Oc4ccc(C#N)c(OC)c4)CC3)cn2)CC1)[C@H]1C[C@H](Oc2ccc3c(c2)C(=O)N(C2CCC(=O)NC2=O)C3=O)C1 (some centres unmarked) [Compound 68, N-((1r,4r)-4-(4-cyano-3-methoxyphenoxy)cyclohexyl)-5-(4-((((1r,3r)-3-((2-(2,6-dioxopiperidin-3-yl)-1,3-dioxoisoindolin-5-yl)oxy)cyclobutyl)(2-methoxyethyl)amino)methyl)piperidin-1-yl)pyrazine-2-carboxamide]
– | < 1 | N#Cc1ccc(O[C@H]2CC[C@H](NC(=O)c3ccc(N4CCC(CN5CCN(c6ccc7c(c6)C(=O)N(C6(F)CCC(=O)NC6=O)C7=O)CC5)CC4)nn3)CC2)cc1Cl (mixture of isomers) [Compound 18, rac-N-((1r,4r)-4-(3-chloro-4-cyanophenoxy)cyclohexyl)-6-(4-((4-(2-(3-fluoro-2,6-dioxopiperidin-3-yl)-1,3-dioxoisoindolin-5-yl)piperazin-1-yl)methyl)piperidin-1-yl)pyridazine-3-carboxamide]
– | > 100 | COc1cc(O[C@H]2C[C@H](N(CC3CCN(c4ncc(C(=O)NC5CC6CN(Cc7cc(C)c(C#N)c(C)c7)CC6C5)cn4)CC3)C(C)C)C2)cc2c1C(=O)N(C1CCC(=O)NC1=O)C2=O (some centres unmarked) [Compound 3, N-(2-(4-cyano-3,5-dimethylbenzyl)octahydrocyclopenta [c]pyrrol-5-yl)-2-(4-((((1r,3r)-3-((2-(2,6-dioxopiperidin-3-yl)-7-methoxy-1,3-dioxoisoindolin-5-yl)oxy)cyclobutyl) (isopropyl)amino)methyl)piperidin-1-yl)pyrimidine-5-carboxamide]
< 1 | – | Cc1cc(O[C@H]2C(C)(C)[C@H](NC(=O)c3cnc(N4CCC(CN(C(C)C)[C@H]5C[C@H](Oc6cccc7c6C(=O)N(C6CCC(=O)NC6=O)C7=O)C5)CC4)nc3)C2(C)C)cc(C)c1C#N (some centres unmarked) [compound 88, N-((1r,3r)-3-(4-cyano-3,5-dimethylphenoxy)-2,2,4,4-tetramethylcyclobutyl)-2-(4-((((1r,3r)-3-((2-(2,6-dioxopiperidin-3-yl)-1,3-dioxoisoindolin-4-yl)oxy)cyclobutyl) (isopropyl)amino)methyl)piperidin-1-yl)pyrimidine-5-carboxamide]
– | < 1 | CCOc1cc(O[C@H]2CC[C@H](NC(=O)c3cnc(N4CC(CN(C(C)C)[C@H]5C[C@H](Oc6ccc7c(c6)C(=O)N(C6CCC(=O)NC6=O)C7=O)C5)C4)cn3)CC2)ccc1C#N (some centres unmarked) [Compound 43, N-((1r,4r)-4-(4-cyano-3-ethoxyphenoxy)cyclohexyl)-5-(3-((((1r,3r)-3-((2-(2,6-dioxopiperidin-3-yl)-1,3-dioxoisoindolin-5-yl)oxy)cyclobutyl) (isopropyl)amino)methyl)azetidin-1-yl)pyrazine-2-carboxamide]
– | < 1 | CCN(CC1CCN(c2cnc(C(=O)N[C@H]3CC[C@H](Oc4ccc(C#N)c(Cl)c4)CC3)cn2)CC1)[C@H]1C[C@H](Oc2ccc3c(c2)C(=O)N(C2CCC(=O)NC2=O)C3=O)C1 (some centres unmarked) [Compound 28, N-((1r,4r)-4-(3-chloro-4-cyanophenoxy)cyclohexyl)-5-(4-((((1r,3r)-3-((2-(2,6-dioxopiperidin-3-yl)-1,3-dioxoisoindolin-5-yl)oxy)cyclobutyl)(ethyl)amino)methyl)piperidin-1-yl)pyrazine-2-carboxamide]
– | < 1 | N#Cc1ccc(O[C@H]2CC[C@H](NC(=O)c3cnc(N4CCC(CN(C5COC5)[C@H]5C[C@H](Oc6ccc7c(c6)C(=O)N(C6CCC(=O)NC6=O)C7)C5)CC4)cn3)CC2)cc1Cl (some centres unmarked) [Compound 15, N-((1r,4r)-4-(3-chloro-4-cyanophenoxy)cyclohexyl)-5-(4-((((1r,3r)-3-((2-(2,6-dioxopiperidin-3-yl)-3-oxoisoindolin-5-yl)oxy)cyclobutyl) (oxetan-3-yl)amino)methyl)piperidin-1-yl)pyrazine-2-carboxamide]
< 1 | – | Cc1cc(O[C@H]2C(C)(C)[C@H](NC(=O)c3ccc(N4CCC(CN(C(C)C)[C@H]5C[C@H](Oc6ccc7c(c6)C(=O)N(C6CCC(=O)NC6=O)C7=O)C5)CC4)nn3)C2(C)C)cc(C)c1C#N (some centres unmarked) [compound 110, N-((1r,3r)-3-(4-cyano-3,5-dimethylphenoxy)-2,2,4,4-tetramethylcyclobutyl)-6-(4-((((1r,3r)-3-((2-(2,6-dioxopiperidin-3-yl)-1,3-dioxoisoindolin-5-yl)oxy)cyclobutyl) (isopropyl)amino)methyl)piperidin-1-yl)pyridazine-3-carboxamide]
10 to 100 | – | COc1cc(O[C@H]2C[C@H](N(CC(F)F)CC3CCN(c4cnc(C(=O)N[C@H]5C(C)(C)[C@H](Oc6ccc(C#N)c(Cl)c6)C5(C)C)cn4)CC3)C2)cc2c1C(=O)N(C1CCC(=O)NC1=O)C2=O (some centres unmarked) [compound 137, N-((1r,3r)-3-(3-chloro-4-cyanophenoxy)-2,2,4,4-tetramethylcyclobutyl)-5-(4-(((2,2-difluoroethyl)((1r,3r)-3-((2-(2,6-dioxopiperidin-3-yl)-7-methoxy-1,3-dioxoisoindolin-5-yl)oxy)cyclobutyl)amino)methyl)piperidin-1-yl)pyrazine-2-carboxamide]
< 1 | – | CC1(C)[C@H](NC(=O)c2cnc(N3CCC(CN(CCN4CCOCC4)[C@H]4C[C@H](Oc5ccc6c(c5)C(=O)N(C5CCC(=O)NC5=O)C6=O)C4)CC3)cn2)C(C)(C)[C@H]1Oc1ccc(C#N)c(C#N)c1 (some centres unmarked) [compound 233, N-((1r,3r)-3-(3,4-dicyanophenoxy)-2,2,4,4-tetramethylcyclobutyl)-5-(4-((((1r,3r)-3-((2-(2,6-dioxopiperidin-3-yl)-1,3-dioxoisoindolin-5-yl)oxy)cyclobutyl)(2-morpholinoethyl)amino)methyl)piperidin-1-yl)pyrazine-2-carboxamide]
< 1 | – | Cc1cc(O[C@H]2C(C)(C)[C@H](NC(=O)c3ccc(N4CCC(CN(C)[C@@H]5CC[C@H](Oc6ccc7c(c6)C(=O)N(C6CCC(=O)NC6=O)C7=O)C5)CC4)cc3)C2(C)C)cc(C)c1C#N (stereo partly drawn) [compound 166, N-((1r,3R)-3-(4-cyano-3,5-dimethylphenoxy)-2,2,4,4-tetramethylcyclobutyl)-4-(4-((((1R,3S)-3-((2-(2,6-dioxopiperidin-3-yl)-1,3-dioxoisoindolin-5-yl)oxy)cyclopentyl) (methyl)amino)methyl)piperidin-1-yl)benzamide]
< 1 | – | Cc1cc(O[C@H]2C(C)(C)[C@H](NC(=O)c3ccc(CN4CCOC[C@@H]4CN(C)[C@H]4C[C@H](Oc5ccc6c(c5)C(=O)N(C5CCC(=O)NC5=O)C6=O)C4)cc3)C2(C)C)cc(C)c1C#N (stereo partly drawn) [compound 151, N-((1r,3S)-3-(4-cyano-3,5-dimethylphenoxy)-2,2,4,4-tetramethylcyclobutyl)-4-(((3S)-3-((((1r,3S)-3-((2-(2,6-dioxopiperidin-3-yl)-1,3-dioxoisoindolin-5-yl)oxy)cyclobutyl) (methyl)amino)methyl)morpholino)methyl) benzamide]
